Results as given in patent publication US6949542B2, “Dihydro-benzo[b][1,4]diazepin-2-one derivatives” (Hoffman-La Roche Inc., priority 2002, dated 2005).

target: T1, rat mGlu2 receptor (Rattus norvegicus, UniProt P31421); test: [3H]-LY354740 binding on mGlu2 transfected CHO cell membranes; details: inhibition of 10 nM [3H]-LY354740 binding, mGlu2 transfected CHO cell membranes, room temperature, 1 hour; read-out: Ki mGlu2
T1 construct: expressed in transfected cells; vector pcD1mGR2
T1 sequence (P31421 19-872): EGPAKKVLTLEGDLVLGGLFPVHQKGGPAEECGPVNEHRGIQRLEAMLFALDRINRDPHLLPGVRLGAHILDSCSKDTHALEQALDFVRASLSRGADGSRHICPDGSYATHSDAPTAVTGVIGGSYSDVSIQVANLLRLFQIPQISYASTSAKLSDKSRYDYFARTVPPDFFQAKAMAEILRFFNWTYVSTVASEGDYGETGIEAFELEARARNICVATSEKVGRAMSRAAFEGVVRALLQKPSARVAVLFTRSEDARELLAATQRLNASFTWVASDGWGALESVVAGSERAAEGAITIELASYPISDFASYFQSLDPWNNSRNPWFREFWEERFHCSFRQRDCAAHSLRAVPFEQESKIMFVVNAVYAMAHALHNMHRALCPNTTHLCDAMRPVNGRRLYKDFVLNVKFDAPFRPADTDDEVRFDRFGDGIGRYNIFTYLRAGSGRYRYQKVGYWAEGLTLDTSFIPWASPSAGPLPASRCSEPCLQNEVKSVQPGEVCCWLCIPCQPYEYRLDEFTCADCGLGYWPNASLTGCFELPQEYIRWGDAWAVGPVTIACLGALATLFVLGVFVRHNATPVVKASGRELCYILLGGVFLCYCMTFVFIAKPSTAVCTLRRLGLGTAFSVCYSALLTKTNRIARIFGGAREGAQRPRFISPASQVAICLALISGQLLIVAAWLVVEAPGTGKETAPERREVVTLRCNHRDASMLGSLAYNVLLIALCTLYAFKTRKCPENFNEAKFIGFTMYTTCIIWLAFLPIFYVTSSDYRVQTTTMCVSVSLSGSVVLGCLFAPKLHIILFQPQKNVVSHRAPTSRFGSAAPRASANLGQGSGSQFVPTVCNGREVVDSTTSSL
Description: [^3H]-LY354740 Binding on mGlu2 Transfected CHO Cell Membranes
Transfection and Cell Culture
The cells were maintained in Dulbecco's Modified Eagle medium with reduced L-glutamine (2 mM final concentration) and 10% dialysed foetal calf serum from Gibco BRL (Basel, Switzerland).
Cells, cultured as above, were harvested and washed three times with cold PBS and frozen at −80° C. The pellet was resuspended in cold 20 mM HEPES-NaOH buffer containing 10 mM EDTA (pH 7.4), and homogenised with a polytron (Kinematica, AG, Littau, Switzerland) for 10 s at 10 000 rpm. After centrifugation for 30 min. at 4° C., the pellet was washed once with the same buffer, and once with cold 20 mM HEPES-NaOH buffer containing 0.1 mM EDTA, (pH 7.4). Protein content was measured using the Pierce method (Socochim, Lausanne, Switzerland) using bovine serum albumin as standard.
After thawing, the membranes were resuspended in cold 50 mM Tris-HCl buffer containing 2 mM MgCl2 and 2 mM CaCl2, (pH 7) (binding buffer). The final concentration of the membranes in the assays was 25 μg protein/ml. Inhibition experiments were performed with membranes incubated with 10 nM [^3H]-LY354740 at room temperature, for 1 hour, in presence of various concentrations of the compound to be tested. Following the incubations, membranes were filtered onto Whatmann GF/C glass fiber filters and washed 5 times with cold binding buffer. Non specific binding was measured in the presence of 10 μM DCG IV. After transfer of the filters into plastic vials containing 10 ml of Ultima-gold scintillation fluid (Packard, Zürich, Switzerland), the radioactivity was measured by liquid scintillation in a Tri-Carb 2500 TR counter (Packard, Zürich, Switzerland).
The inhibition curves were fitted with a four parameter logistic equation giving IC50 values, and Hill coefficients.

In order of falling Ki:
1. O=C1CC(c2cccc(-c3ccccn3)c2)=Nc2ccc(-n3cccc3)cc2N1 [Example 54, 4-(3-Pyridin-2-yl-phenyl)-8-pyrrol-1-yl-1,3-dihydro-benzo[b][1,4]diazepin-2-one]  32.6 nM
2. O=C1CC(c2cccc(-c3cccnc3)c2)=Nc2cc(OCC(F)(F)F)ccc2N1 [Example 57, 4-(3-Pyridin-3-yl-phenyl)-7-(2,2,2-trifluoro-ethoxy)-1,3-dihydro-benzo[b][1,4]diazepin-2-one]  6.2 nM
3. CN(C)c1cc2c(cc1C(F)(F)F)NC(=O)CC(c1cccc(-c3ccncc3)c1)=N2 [Example 4, 7-Dimethylamino-4-(3-pyridin-4-yl-phenyl)-8-trifluoromethyl-1,3-dihydro-benzo[b][1,4]diazepin-2-one]  6 nM
4. Cc1cc2c(cc1C(F)(F)F)NC(=O)CC(c1ccnc(-c3cccnc3)c1)=N2 [Example 290, 4-[2,3′]Bipyridinyl-4-yl-7-methyl-8-trifluoromethyl-1,3-dihydro-benzo[b][1,4]diazepin-2-one]  5 nM
5. Cc1cc(-c2cccc(C3=Nc4cc(C)c(Cl)cc4NC(=O)C3)c2)ccn1 [Example 73, 8-Chloro-7-methyl-4-[3-(2-methyl-pyridin-4-yl)-phenyl]-1,3-dihydro-benzo[b][1,4]diazepin-2-one]  2.7 nM
6. CN(C)c1cc2c(cc1C(F)(F)F)NC(=O)CC(c1cccc(-c3cccnc3)c1)=N2 [Example 3, 7-Dimethylamino-4-(3-pyridin-3-yl-phenyl)-8-trifluoromethyl-1,3-dihydro-benzo[b][1,4]diazepin-2-one]  2.3 nM
7. Cc1cc(-c2cccc(C3=Nc4ccc(-c5ccccc5F)cc4NC(=O)C3)c2)ccn1 [Example 72, 8-(2-Fluoro-phenyl)-4-[3-(2-methyl-pyridin-4-yl)-phenyl]-1,3-dihydro-benzo[b][1,4]diazepin-2-one]  1.8 nM
8. Cc1cc2c(cc1Cl)NC(=O)CC(c1cccc(-c3ccncc3)c1)=N2 [Example 67, 8-Chloro-7-methyl-4-(3-pyridin-4-yl-phenyl)-1,3-dihydro-benzo[b][1,4]diazepin-2-one]  1.55 nM
9. O=C1CC(c2cccc(-c3cccnc3)c2)=Nc2cc(Cl)c(Cl)cc2N1 [Example 1, 7,8-Dichloro-4-(3-pyridin-3-yl-phenyl)-1,3-dihydro-benzo[b][1,4]diazepin-2-one]  1.35 nM

system: not given; test: not given; details: not given

First: Cc1cc(-c2cccc(C3=Nc4cc(N5CCCC5)c(C(F)(F)F)cc4NC(=O)C3)c2)cc(C)n1 [Example 411, 4-[3-(2,6-Dimethyl-pyridin-4-yl)-phenyl]-7-pyrrolidin-1-yl-8-trifluoromethyl-1,3-dihydro-benzo[b][1,4]diazepin-2-one]
Second: CCOc1cc2c(cc1C(F)(F)F)NC(=O)CC(c1cccc(-c3cc(C)nc(C4CC4)c3)c1)=N2 [Example 258, 4-[3-(2-Cyclopropyl-6-methyl-pyridin-4-yl)-phenyl]-7-ethoxy-8-trifluoromethyl-1,3-dihydro-benzo[b][1,4]diazepin-2-one]
The melting point of the first is higher: 233 °C for the first, 232 °C for the second.

Going from Cc1cc(-c2cccc(C3=Nc4ccc(C(F)(F)F)cc4NC(=O)C3)c2)cc(CO)n1 [Example 407, 4-[3-(2-Hydroxymethyl-6-methyl-pyridin-4-yl)-phenyl]-8-trifluoromethyl-1,3-dihydro-benzo[b][1,4]diazepin-2-one] to CCc1cnc(C)cc1-c1cccc(C2=Nc3ccc(C(F)(F)F)cc3NC(=O)C2)c1 [Example 149, 4-[3-(5-Ethyl-2-methyl-pyridin-4-yl)-phenyl]-8-trifluoromethyl-1,3-dihydro benzo[b][1,4]diazepin-2-one], the melting point falls from 228 °C to 183 °C.

Compared with Cc1ccc(-c2cccc(C3=Nc4cc(C)c(C(F)(F)F)cc4NC(=O)C3)c2)cn1 [Example 237, 7-Methyl-4-[3-(6-methyl-pyridin-3-yl)-phenyl]-8-trifluoromethyl-1,3-dihydro-benzo[b][1,4]diazepin-2-one], Cc1cc2c(cc1C(F)(F)F)NC(=O)CC(c1cccc(-c3cc(N(C)C)ncn3)c1)=N2 [Example 332, 4-[3-(6-Dimethylamino-pyrimidin-4-yl)-phenyl]-7-methyl-8-trifluoromethyl-1,3-dihydro-benzo[b][1,4]diazepin-2-one] is higher in melting point: 235 °C for the first, 239 to 242 °C for the second.

Compared with COCCOc1cc2c(cc1C(F)(F)F)NC(=O)CC(c1cccc(-c3cccnc3)c1)=N2 [Example 208, 7-(2-Methoxy-ethoxy)-4-(3-pyridin-3-yl-phenyl)-8-trifluoromethyl-1,3-dihydro-benzo[b][1,4]diazepin-2-one], O=C1CC(c2cccc(-c3cccnc3)c2)=Nc2cc(C(F)(F)F)c(Cl)cc2N1 [Example 113, 8-Chloro-4-(3-pyridin-3-yl-phenyl)-7-trifluoromethyl-1,3-dihydro-benzo[b][1,4]diazepin-2-one] is higher in melting point: 190 to 191 °C for the first, 208 °C for the second.

Going from O=C1CC(c2cccc(-c3ccncc3)c2)=Nc2cc(C(F)(F)F)c(Cl)cc2N1 [Example 100, 8-Chloro-4-(3-pyridin-4-yl-phenyl)-7-trifluoromethyl-1,3-dihydro-benzo[b][1,4]diazepin-2-one] to CC(C)c1cc(-c2cccc(C3=Nc4ccc(C(F)(F)F)cc4NC(=O)C3)c2)ccn1 [Example 272, 4-[3-(2-Isopropyl-pyridin-4-yl)-phenyl]-8-trifluoromethyl-1,3-dihydro benzo[b][1,4]diazepin-2-one], the melting point falls from 200 °C to 168 °C.

First: O=C1CC(c2cccc(-c3ccc(C4CC4)nc3)c2)=Nc2cc(OCC(F)(F)F)ccc2N1 [Example 176, 4-[3-(6-Cyclopropyl-pyridin-3-yl)-phenyl]-7-(2,2,2-trifluoro-ethoxy)-1,3-dihydro-benzo[b][1,4]diazepin-2-one]
Second: CCOc1ccc2c(c1)N=C(c1cccc(-c3ccnc(C)c3)c1)CC(=O)N2 [Example 59, 7-Ethoxy-4-[3-(2-methyl-pyridin-4-yl)-phenyl]-1,3-dihydro-benzo[b][1,4]diazepin-2-one]
The melting point of the first is higher: 178 to 180 °C for the first, 163 °C for the second.

Going from CCOc1cc2c(cc1C(F)(F)F)NC(=O)CC(c1cccc(-c3cnc(CC)cc3C)c1)=N2 [Example 255, 7-Ethoxy-4-[3-(6-ethyl-4-methyl-pyridin-3-yl)-phenyl]-8-trifluoromethyl-1,3-dihydro-benzo[b][1,4]diazepin-2-one] to CCOc1cc2c(cc1C(F)(F)F)NC(=O)CC(c1cccc(-c3cccnc3CC)c1)=N2 [Example 235, 7-Ethoxy-4-[3-(2-ethyl-pyridin-3-yl)-phenyl]-8-trifluoromethyl-1,3-dihydro-benzo[b][1,4]diazepin-2-one], the melting point rises from 205 °C to 214 °C.

First: Cc1ncccc1-c1cccc(C2=Nc3ccc(Cl)cc3NC(=O)C2)c1 [Example 32, 8-Chloro-4-[3-(2-methyl-pyridin-3-yl)-phenyl]-1,3-dihydro-benzo[b][1,4]diazepin-2-one]
Second: CCc1ccc(-c2cccc(C3=Nc4cc(C)c(Cl)cc4NC(=O)C3)c2)cn1 [Example 189, 8-Chloro-4-[3-(6-ethyl-pyridin-3-yl)-phenyl]-7-methyl-1,3-dihydro-benzo[b][1,4]diazepin-2-one]
The melting point of the first is higher: 198 °C for the first, 182 to 185 °C for the second.

First: CC(C)CN(C)Cc1cc(-c2cccc(C3=Nc4cc(N(C)CC(C)C)c(C(F)(F)F)cc4NC(=O)C3)c2)ccn1 [Example 395, 7-(Isobutyl-methyl-amino)-4-(3-{2-[(isobutyl-methyl-amino)-methyl]-pyridin-4-yl}-phenyl)-8-trifluoromethyl-1,3-dihydro-benzo[b][1,4]diazepin-2-one]
Second: COCc1cc(-c2cccc(C3=Nc4cc(OCC(F)(F)F)c(C(F)(F)F)cc4NC(=O)C3)c2)ccn1 [Example 400, 4-[3-(2-Methoxymethyl-pyridin-4-yl)-phenyl]-7-(2,2,2-trifluoro-ethoxy)-8-trifluoromethyl-1,3-dihydro-benzo[b][1,4]diazepin-2-one]
The melting point of the first is lower: 190 °C for the first, 225 °C for the second.

Compared with Cc1cncc(-c2cccc(C3=Nc4cc(C)c(Cl)cc4NC(=O)C3)c2)n1 [Example 131, 8-Chloro-7-methyl-4-[3-(6-methyl-pyrazin-2-yl)-phenyl]-1,3-dihydro-benzo[b][1,4]diazepin-2-one], Cc1cc(-c2cccc(C3=Nc4cc(C)c(Cl)cc4NC(=O)C3)c2)nc(N(C)C)n1 [Example 321, 8-Chloro-4-[3-(2-dimethylamino-6-methyl-pyrimidin-4-yl)-phenyl]-7-methyl-1,3-dihydro-benzo[b][1,4]diazepin-2-one] is higher in melting point: 235 °C for the first, 248 to 250 °C for the second.

First: Cc1ccc(-c2cccc(C3=Nc4cc(N(C)C)c(C(F)(F)F)cc4NC(=O)C3)c2)nn1 [Example 15, 7-Dimethylamino-4-[3-(6-methyl-pyridazin-3-yl)-phenyl]-8-trifluoromethyl-1,3-dihydro-benzo[b][1,4]diazepin-2-one]
Second: CN(c1cc2c(cc1C(F)(F)F)NC(=O)CC(c1cccc(-c3cccnc3)c1)=N2)C1CC1 [Example 62, 7-(Cyclopropyl-methyl-amino)-4-(3-pyridin-3-yl-phenyl)-8-trifluoromethyl-1,3-dihydro-benzo[b][1,4]diazepin-2-one]
The melting point of the first is lower: 174 °C for the first, 196 to 198 °C for the second.

Compared with COCCNc1nc(C)cc(-c2cccc(C3=Nc4cc(C)c(Cl)cc4NC(=O)C3)c2)n1 [Example 325, 8-Chloro-4-{3-[2-(2-methoxy-ethylamino)-6-methyl-pyrimidin-4-yl]-phenyl}-7-methyl-1,3-dihydro-benzo[b][1,4]diazepin-2-one], CN(C)c1cc2c(cc1-c1ccccc1F)NC(=O)CC(c1cccc(-c3ccncc3)c1)=N2 [Example 39, 7-Dimethylamino-8-(2-fluoro-phenyl)-4-(3-pyridin-4-yl-phenyl)-1,3-dihydro-benzo[b][1,4]diazepin-2-one] is higher in melting point: 222 to 224 °C for the first, 236 to 237 °C for the second.

Compound O=C1CC(c2cccc(-c3ccccn3)c2)=Nc2ccc(C#Cc3ccccc3)cc2N1 [Example 164, 8-Phenylethynyl-4-(3-pyridin-2-yl-phenyl)-1,3-dihydro-benzo[b][1,4]diazepin-2-one] has a melting point of 242 °C.
